Results reported in patent US6358885B1, “Substituted phenylheterocyclic herbicides” (Mississippi State University, priority 1992, dated 2002).

What was measured:
cheatgrass = assay: Test B preemergence/postemergence greenhouse plant response rating 0 to 10; format: in vivo, Bromus secalinus; conditions: for Plant response rating, Cheatgrass: 0 to 10 scale
Procedure, shortened: (§1)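 Both application timings were run together: seeds got compound preemergence, and established seedlings (two to eighteen cm) got it postemergence. Non-phytotoxic solvent carried the chemical. Ratings are visual, versus controls, at twelve to sixteen days.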

cotton = assay: as above; format: in vivo, Gossypium hirsutum; conditions: for Plant response rating, Cotton: 0 to 10 scale
Procedure, shortened: as §1

lambsquarters [1] = assay: as above; format: in vivo, Chenopodium album; conditions: for Plant response rating, Lambsquarter: 0 to 10 scale
Procedure, shortened: as §1

rice = assay: as above; format: in vivo, Oryza sativa; conditions: for Plant response rating, Rice: 0 to 10 scale
Procedure, shortened: as §1

soybean = assay: as above; format: in vivo, Glycine max; conditions: for Plant response rating, Soybean: 0 to 10 scale
Procedure, shortened: as §1

velvetleaf = assay: as above; format: in vivo, Abutilon theophrasti; conditions: for Plant response rating, Velvetleaf: 0 to 10 scale
Procedure, shortened: as §1

wild buckwheat = assay: as above; format: in vivo, Polygonum convolvulus; conditions: for Plant response rating, Wild buckwheat: 0 to 10 scale
Procedure, shortened: as §1

purple nutsedge = assay: as above; format: in vivo, Cyperus rotundus; conditions: for Plant response rating, Nutsedge: 0 to 10 scale
Procedure, shortened: as §1

barley = assay: Test C preemergence/postemergence greenhouse plant response rating 0 to 100; format: in vivo, Hordeum vulgare; conditions: for Plant response rating Barley Igri: 125 g/ha, 0 to 100 scale
Procedure, shortened: (§2)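 Compounds in non-phytotoxic solvent went onto sandy loam before emergence (seeded one day earlier) or onto plants at the one-to-four leaf stage. Duck salad was treated via flood water (~2.5 cm, maintained) over silt loam.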

corn = assay: as above; format: in vivo, Zea mays; conditions: for Plant response rating, Corn: 125 g/ha, 0 to 100 scale
Procedure, shortened: as §2

lambsquarters [2] = assay: as above; format: in vivo, Chenopodium album; conditions: for Plant response rating Lambsquarters: 125 g/ha, 0 to 100 scale
Procedure, shortened: as §2

COCOc1cc(-c2nn3c(c2Cl)CCCC3)c(F)cc1Cl [Compound 58]
Plant response rating, Cheatgrass (cheatgrass; POSTEMERGENCE, Rate 50 g/ha): 7
Plant response rating, Cheatgrass (cheatgrass; PREEMERGENCE, Rate 50 g/ha): 4
Plant response rating (0 to 10 scale), Cheatgrass (cheatgrass; PREEMERGENCE, Rate 200 g/ha): 8
Plant response rating, Cheatgrass (cheatgrass; Rate 200 g/ha, POSTEMERGENCE): 10
Plant response rating, Cotton (cotton; POSTEMERGENCE, Rate 50 g/ha): 10
Plant response rating, Cotton (cotton; PREEMERGENCE, Rate 50 g/ha): 0
Plant response rating (0 to 10 scale), Cotton (cotton; PREEMERGENCE, Rate 200 g/ha): 0
Plant response rating, Cotton (cotton; Rate 200 g/ha, POSTEMERGENCE): 10
Plant response rating, Lambsquarter (lambsquarters [1]; POSTEMERGENCE, Rate 50 g/ha): 10
Plant response rating, Lambsquarter (lambsquarters [1]; PREEMERGENCE, Rate 50 g/ha): 10
Plant response rating (0 to 10 scale), Lambsquarter (lambsquarters [1]; PREEMERGENCE, Rate 200 g/ha): 10
Plant response rating, Lambsquarter (lambsquarters [1]; Rate 200 g/ha, POSTEMERGENCE): 10
Plant response rating, Rice (rice; POSTEMERGENCE, Rate 50 g/ha): 4
Plant response rating, Rice (rice; PREEMERGENCE, Rate 50 g/ha): 0
Plant response rating (0 to 10 scale), Rice (rice; PREEMERGENCE, Rate 200 g/ha): 0
Plant response rating, Rice (rice; Rate 200 g/ha, POSTEMERGENCE): 5
Plant response rating, Soybean (soybean; POSTEMERGENCE, Rate 50 g/ha): 7
Plant response rating, Soybean (soybean; PREEMERGENCE, Rate 50 g/ha): 0
Plant response rating (0 to 10 scale), Soybean (soybean; PREEMERGENCE, Rate 200 g/ha): 0
Plant response rating, Soybean (soybean; Rate 200 g/ha, POSTEMERGENCE): 9
Plant response rating, Velvetleaf (velvetleaf; POSTEMERGENCE, Rate 50 g/ha): 9
Plant response rating, Velvetleaf (velvetleaf; PREEMERGENCE, Rate 50 g/ha): 10
Plant response rating (0 to 10 scale), Velvetleaf (velvetleaf; PREEMERGENCE, Rate 200 g/ha): 10
Plant response rating, Velvetleaf (velvetleaf; Rate 200 g/ha, POSTEMERGENCE): 10
Plant response rating, Wild buckwheat (wild buckwheat; POSTEMERGENCE, Rate 50 g/ha): 10
Plant response rating, Wild buckwheat (wild buckwheat; PREEMERGENCE, Rate 50 g/ha): 9
Plant response rating (0 to 10 scale), Wild buckwheat (wild buckwheat; PREEMERGENCE, Rate 200 g/ha): 10
Plant response rating, Wild buckwheat (wild buckwheat; Rate 200 g/ha, POSTEMERGENCE): 10
Plant response rating, Nutsedge (purple nutsedge; POSTEMERGENCE, Rate 50 g/ha): 5
Plant response rating, Nutsedge (purple nutsedge; PREEMERGENCE, Rate 50 g/ha): 0
Plant response rating (0 to 10 scale), Nutsedge (purple nutsedge; PREEMERGENCE, Rate 200 g/ha): 0
Plant response rating, Nutsedge (purple nutsedge; Rate 200 g/ha, POSTEMERGENCE): 9
Plant response rating Barley Igri (barley; POSTEMERGENCE): 60
Plant response rating (0 to 100), Barley Igri (barley; POSTEMERGENCE, Rate 2 g/ha): 30
Plant response rating Barley Igri (barley; PREEMERGENCE): 30
Plant response rating (0 to 100), Barley Igri (barley; PREEMERGENCE, Rate 2 g/ha): 0
Plant response rating (0 to 100), Barley Igri (barley; Rate 8 g/ha, POSTEMERGENCE): 40
Plant response rating (0 to 100), Barley Igri (barley; Rate 8 g/ha, PREEMERGENCE): 0
Plant response rating (0 to 100), Barley Igri (barley; Rate 31 g/ha, POSTEMERGENCE): 50
Plant response rating (0 to 100), Barley Igri (barley; Rate 31 g/ha, PREEMERGENCE): 0
Plant response rating, Corn (corn; POSTEMERGENCE): 65
Plant response rating (0 to 100), Corn (corn; POSTEMERGENCE, Rate 2 g/ha): 40
Plant response rating, Corn (corn; PREEMERGENCE): 30
Plant response rating (0 to 100), Corn (corn; PREEMERGENCE, Rate 2 g/ha): 0
Plant response rating (0 to 100), Corn (corn; Rate 8 g/ha, POSTEMERGENCE): 40
Plant response rating (0 to 100), Corn (corn; Rate 8 g/ha, PREEMERGENCE): 0
Plant response rating (0 to 100), Corn (corn; Rate 31 g/ha, POSTEMERGENCE): 50
Plant response rating (0 to 100), Corn (corn; Rate 31 g/ha, PREEMERGENCE): 0
Plant response rating Lambsquarters (lambsquarters [2]; POSTEMERGENCE): 100
Plant response rating (0 to 100), Lambsquarters (lambsquarters [2]; POSTEMERGENCE, Rate 2 g/ha): 50
Plant response rating Lambsquarters (lambsquarters [2]; PREEMERGENCE): 100
Plant response rating (0 to 100), Lambsquarters (lambsquarters [2]; PREEMERGENCE, Rate 2 g/ha): 0
Plant response rating (0 to 100), Lambsquarters (lambsquarters [2]; Rate 8 g/ha, POSTEMERGENCE): 85
Plant response rating (0 to 100), Lambsquarters (lambsquarters [2]; Rate 8 g/ha, PREEMERGENCE): 100
